In PubChem BioAssay AID1963833 (Molecular Pharmacology Branch, DTP, NCI, 2024):
pIC50: −log10 of the molar value.

Test system: 883617-216-R-J1-PDC complex spheroid viability
Experiment: Anticancer human tumor 883617-216-R-J1-PDC patient-derived bladder carcinoma cell line growth inhibition [POLQ]
Conditions: for pIC50: curve of first compound; for viability, T/C: stronger effect = lower value
How it was run: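 Patient-derived tumour cells were co-cultured with HUVEC and mesenchymal stem cells as multicellular spheroids at 37 °C. They were treated with POLQ inhibitors (novobiocin, ART-558, RP6685) alone or combined with other agents. Top concentrations were at or near clinical Cmax (otherwise 10 microM; SN-38 at 1 microM), decreasing in half-log steps.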

[1] = second compound 0.0316 µM, first compound 0.0316 µM
[2] = second compound 0.0316 µM, first compound 0.1 µM
[3] = second compound 0.0316 µM, first compound 0.316 µM
[4] = second compound 0.0316 µM, first compound 1 µM
[5] = second compound 0.1 µM, first compound 0.0316 µM
[6] = second compound 0.1 µM, first compound 0.1 µM
[7] = second compound 0.1 µM, first compound 0.316 µM
[8] = second compound 0.1 µM, first compound 1 µM
[9] = second compound 0.316 µM, first compound 0.0316 µM
[10] = second compound 0.316 µM, first compound 0.1 µM
[11] = second compound 0.316 µM, first compound 0.316 µM
[12] = second compound 0.316 µM, first compound 1 µM
[13] = second compound 1 µM, first compound 0.0316 µM
[14] = second compound 1 µM, first compound 0.1 µM
[15] = second compound 1 µM, first compound 0.316 µM
[16] = second compound 1 µM, first compound 1 µM
[17] = second compound 3.16 µM, first compound 0.0316 µM
[18] = second compound 3.16 µM, first compound 0.1 µM
[19] = second compound 3.16 µM, first compound 0.316 µM
[20] = second compound 3.16 µM, first compound 1 µM
[21] = second compound 10 µM, first compound 0.0316 µM
[22] = second compound 10 µM, first compound 0.1 µM
[23] = second compound 10 µM, first compound 0.316 µM
[24] = second compound 10 µM, first compound 1 µM
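Note: spheroids exposed to compounds for seven days before readout.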
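Throughout, for viability, T/C: 100% = DMSO vehicle control viability.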

CC(C)n1c(=O)n(C)c2cnc3cc(F)c(-c4ccc(OCCCN5CCCCC5)nc4)cc3c21 + Nc1ccc(C#CCN(C(=O)Cc2ncc(C(F)(F)F)cc2C(F)(F)F)c2ccc(F)cc2)nn1
pIC50 (second compound 0.0316 µM): < 5.00 | pIC50 (second compound 0.1 µM): < 5.00 | pIC50 (second compound 0.316 µM): < 5.00 | pIC50 (second compound 1 µM): < 5.00 | pIC50 (second compound 3.16 µM): < 5.00 | pIC50 (second compound 10 µM): < 5.00 | viability, T/C [1]: 95.3% | viability, T/C [2]: 94.5% | viability, T/C [3]: 96% | viability, T/C [4]: 108% | viability, T/C (second compound 0.0316 µM, first compound 3.16 µM): 82.6% | viability, T/C (second compound 0.0316 µM, first compound 10 µM): 75.6% | viability, T/C [5]: 95.7% | viability, T/C [6]: 114% | viability, T/C [7]: 87.6% | viability, T/C [8]: 100% | viability, T/C (second compound 0.1 µM, first compound 3.16 µM): 95% | viability, T/C (second compound 0.1 µM, first compound 10 µM): 69.8% | viability, T/C [9]: 112% | viability, T/C [10]: 89.5% | viability, T/C [11]: 98.9% | viability, T/C [12]: 119% | viability, T/C (second compound 0.316 µM, first compound 3.16 µM): 80.8% | viability, T/C (second compound 0.316 µM, first compound 10 µM): 73.8% | viability, T/C [13]: 108% | viability, T/C [14]: 104% | viability, T/C [15]: 113% | viability, T/C [16]: 104% | viability, T/C (second compound 1 µM, first compound 3.16 µM): 92.2% | viability, T/C (second compound 1 µM, first compound 10 µM): 72.7% | viability, T/C [17]: 101% | viability, T/C [18]: 95.7% | viability, T/C [19]: 104% | viability, T/C [20]: 98% | viability, T/C (second compound 3.16 µM, first compound 3.16 µM): 98.3% | viability, T/C (second compound 3.16 µM, first compound 10 µM): 76.4% | viability, T/C [21]: 117% | viability, T/C [22]: 121% | viability, T/C [23]: 120% | viability, T/C [24]: 103% | viability, T/C (second compound 10 µM, first compound 3.16 µM): 109% | viability, T/C (second compound 10 µM, first compound 10 µM): 81.8%

COc1cccc(OCCCN)c1-c1cc(Nc2cnc(C#N)cn2)n[nH]1 + Cc1cccc(N(C)C(=O)C2C(O)CCN2c2nc(C)cc(C(F)(F)F)c2C#N)c1
pIC50 (second compound 0.0316 µM): 7.15 | pIC50 (second compound 0.1 µM): 7.12 | pIC50 (second compound 0.316 µM): 7.52 | pIC50 (second compound 1 µM): 7.11 | pIC50 (second compound 3.16 µM): 7.03 | pIC50 (second compound 10 µM): 6.84 | viability, T/C (second compound 0.0316 µM, first compound 0.00316 µM): 84.8% | viability, T/C (second compound 0.0316 µM, first compound 0.01 µM): 70.7% | viability, T/C [1]: 61.9% | viability, T/C [2]: 46.8% | viability, T/C [3]: 33.9% | viability, T/C [4]: 35% | viability, T/C (second compound 0.1 µM, first compound 0.00316 µM): 95.5% | viability, T/C (second compound 0.1 µM, first compound 0.01 µM): 81.7% | viability, T/C [5]: 68.5% | viability, T/C [6]: 40.8% | viability, T/C [7]: 39.7% | viability, T/C [8]: 30.7% | viability, T/C (second compound 0.316 µM, first compound 0.00316 µM): 86.9% | viability, T/C (second compound 0.316 µM, first compound 0.01 µM): 81.8% | viability, T/C [9]: 48.2% | viability, T/C [10]: 45.7% | viability, T/C [11]: 40.4% | viability, T/C [12]: 35.4% | viability, T/C (second compound 1 µM, first compound 0.00316 µM): 91.4% | viability, T/C (second compound 1 µM, first compound 0.01 µM): 82.9% | viability, T/C [13]: 51.2% | viability, T/C [14]: 51.4% | viability, T/C [15]: 39.5% | viability, T/C [16]: 29.1% | viability, T/C (second compound 3.16 µM, first compound 0.00316 µM): 91.5% | viability, T/C (second compound 3.16 µM, first compound 0.01 µM): 77% | viability, T/C [17]: 47.1% | viability, T/C [18]: 60.2% | viability, T/C [19]: 41.1% | viability, T/C [20]: 31.8% | viability, T/C (second compound 10 µM, first compound 0.00316 µM): 88.3% | viability, T/C (second compound 10 µM, first compound 0.01 µM): 83.5% | viability, T/C [21]: 65.8% | viability, T/C [22]: 51.7% | viability, T/C [23]: 46.6% | viability, T/C [24]: 47.5%
